The text below walks through data of patent publication US20220396819A1, “METHOD FOR PRODUCING PEPTIDE HAVING PHYSIOLOGICAL ACTIVITY, AND PEPTIDE COMPRISING SHORT LINKER” (priority 2019, published 2022).

Positions of bridges follow the written chain, without caps; N, C: chain ends. No end group written: not given here.

Common to all, as to type: cell-based
For experiment [1], the system named is receptor tyrosine kinase (RTK). The experiment in a line: RTK specificity, Proteome Profiler Human Phospho-RTK Array Kit, HEK293E cells. Particulars: 200 ng/mL peptide or 100 ng/mL HGF, 10 minutes, FIG. 10. How it is done:
The receptor tyrosine kinase (RTK) specificity of the HGF-PAS dimer peptide was evaluated using Proteome Profiler Human Phospho-RTK Array Kit (R&D Systems).
HEK293E cells confluent in a 10 cm cell culture dish were starved by culturing for 24 hours in D-MEM medium containing 0.5% FBS (Thermo Fisher Scientific) and penicillin-streptomycin (Nacalai Tesque). The starved HEK293E cells were stimulated with 200 ng/mL AET-PAS-aMD4dY-PEG11 for 10 minutes. As a positive control, 100 ng/mL HGF was similarly stimulated for 10 minutes. As a negative control, PBS was added and stimulated for 10 minutes (Mock group). After removing the medium and washing the cells once with PBS, the cells were lysed by adding 1 mL of Lysis buffer 17 containing a Protease inhibitor cocktail (Nacalai Tesque). The lysate solution was centrifuged at 14,000 G for 5 minutes to obtain the supernatant as a lysate.
The lysate was analyzed using Proteome Profiler Human Phospho-RTK Array Kit. Molecular Imager ChemiDoc XRS System (Bio-Rad) was used to detect chemiluminescence.

The next experiment has as its target T1, Met (Homo sapiens, UniProt P08581).
T1 construct: endogenous in cells; host or cells: HEK293E
The experiment in a line: Met activation ability, SRE luciferase assay in HEK293E cells (HGF-Erk-SRE pathway). Particulars: for signal activation ability, dimer versus monomer: Example 43, FIG. 76. How it is done:
(§1) The Met activation ability of the HGF-PAS dimer peptide was evaluated by luciferase assay. To 25 μL of Opti-MEM medium (Thermo Fisher Scientific), 0.6 μL of Attractene Transfection Reagent (QIAGEN) was added, and the mixture was incubated at room temperature for 5 minutes. To the above mixed solution, a mixed solution of 25 μL of Opti-MEM and 1 μL of SRE reporter vector (QIAGEN) was added, and the mixture was incubated at room temperature for 20 minutes. This mixed solution was added to a 96-well plate, over which 40,000 cell/well HEK293E cells were seeded and incubated overnight in a 5% CO2 incubator at 37° C. After transfection, all culture supernatant was removed, 100 μL of Opti-MEM medium (evaluation basal medium) containing 0.5% FBS (Thermo Fisher Scientific), 1% non-essential amino acid solution (Thermo Fisher Scientific), and penicillin-streptomycin (Nacalai Tesque) was added, and incubation was performed at 37° C. for 4 hours, and thereby the cells were starved.
To the evaluation basal medium, 0 to 200 ng/mL HGF was added, or 0 to 800 ng/mL AET-PAS-aMD4dY-PEG11, AET-PAS-aMD4-PEG11, or AET-PAS-aMD4-PEG3 was added, or a culture supernatant containing PAS-aMD4dY-PEG11, PAS-aMD4-PEG11, or PAS-aMD4-PEG3 was added so as to be diluted 10-fold with respect to the medium, and the evaluation basal medium was added in an amount of 100 μL to the cells. The cells were stimulated by culturing overnight in a 5% CO2 incubator at 37° C.
The signal intensities were detected using Dual-Luciferase Reporter Assay System (Promega). The medium supernatant in an amount of 100 μL was removed, 50 μL of Glo reagent was added, and the cells were lysed for 10 minutes at room temperature. The luminescence of Firefly luciferase emitted from the cell lysate solution was detected with a plate reader to quantify the activation of the HGF-Erk-SRE pathway. Subsequently, 50 μL of Glo & Stop reagent solution was added, and after 10 minutes, the luminescence of the internal standard Renilla luciferase was detected to quantify the number of cells. The signal activity of each sample was quantified as SRE activity=(Firefly luciferase luminescence intensity)/(Renilla luciferase luminescence intensity). The relative signal activity values for the samples without addition of the evaluation compound were determined and used as relative receptor activity.
as §1, with “peptide linker variant” for “peptide”, “0.6 L” for “0.6 μL”
To the evaluation basal medium, 0 to 100 ng/mL HGF was added, or a culture supernatant containing AET-aMD4dY-PAS8, AET-aMD4dY-PAS22 (the same molecule as AET-PAS-aMD4dY-PEG11), AET-aMD4dY-PAS49, AET-aMD4dY-PAS100, AET-aMD4dY-PAS200, AET-aMD4dY-GS15, or AET-aMD4dY-GS22 was added to the medium so as to be diluted at a predetermined ratio, and the evaluation basal medium was added in an amount of 100 μL to the cells. The cells were stimulated by culturing overnight in a 5% CO2 incubator at 37° C.
The Met activation ability of the stabilized HGF-PAS dimer peptide was evaluated by luciferase assay. […]

In a further experiment the test system is HuCCT1 cells. The experiment in a line: Cell migration activity, Transwell, HuCCT1 cells. Particulars: 100 ng/mL HGF or 200 ng/mL peptide, 24 hours, FIGS. 13, 14. How it is done: HGF has been reported to promote cell migration ability by activating Met (K. Ito, et al. Nat. Commun. 6, 6373, 2015). Therefore, HuCCT1 cell culture was used to evaluate whether the HGF-PAS dimer peptide had the same activity of promoting cell migration as HGF.
To Transwell inserts for 24-well (pore size 3.0 m, Corning), 20,000 HuCCT1 cells suspended in low serum medium (RPMI 1640 medium with 0.5% FBS) were added. A low serum medium containing 100 ng/mL HGF or 200 ng/mL AET-PAS-aMD4dY-PEG11 was added to the lower layer. After culturing for 24 hours under the conditions of 37° C. and 5% CO2, the Transwell inserts were washed 3 times with PBS and cell-fixed and stained with methanol containing 0.5% Crystal Violet (Nacalai Tesque) for 10 minutes. Immobilized and stained Transwell inserts were washed with distilled water. The cells inside the inserts were removed with a scraper. The cells migrated to the outside of the inserts and stained were photographed in the bright field observation mode of a BZ-X microscope (Keyence).
The migration ability was calculated as (area of stained region)/(insert area) and as a relative value (Relative migration efficiency) to the value of the non-added group (Mock) (N=2).

T1 sequence (P08581 25-1390): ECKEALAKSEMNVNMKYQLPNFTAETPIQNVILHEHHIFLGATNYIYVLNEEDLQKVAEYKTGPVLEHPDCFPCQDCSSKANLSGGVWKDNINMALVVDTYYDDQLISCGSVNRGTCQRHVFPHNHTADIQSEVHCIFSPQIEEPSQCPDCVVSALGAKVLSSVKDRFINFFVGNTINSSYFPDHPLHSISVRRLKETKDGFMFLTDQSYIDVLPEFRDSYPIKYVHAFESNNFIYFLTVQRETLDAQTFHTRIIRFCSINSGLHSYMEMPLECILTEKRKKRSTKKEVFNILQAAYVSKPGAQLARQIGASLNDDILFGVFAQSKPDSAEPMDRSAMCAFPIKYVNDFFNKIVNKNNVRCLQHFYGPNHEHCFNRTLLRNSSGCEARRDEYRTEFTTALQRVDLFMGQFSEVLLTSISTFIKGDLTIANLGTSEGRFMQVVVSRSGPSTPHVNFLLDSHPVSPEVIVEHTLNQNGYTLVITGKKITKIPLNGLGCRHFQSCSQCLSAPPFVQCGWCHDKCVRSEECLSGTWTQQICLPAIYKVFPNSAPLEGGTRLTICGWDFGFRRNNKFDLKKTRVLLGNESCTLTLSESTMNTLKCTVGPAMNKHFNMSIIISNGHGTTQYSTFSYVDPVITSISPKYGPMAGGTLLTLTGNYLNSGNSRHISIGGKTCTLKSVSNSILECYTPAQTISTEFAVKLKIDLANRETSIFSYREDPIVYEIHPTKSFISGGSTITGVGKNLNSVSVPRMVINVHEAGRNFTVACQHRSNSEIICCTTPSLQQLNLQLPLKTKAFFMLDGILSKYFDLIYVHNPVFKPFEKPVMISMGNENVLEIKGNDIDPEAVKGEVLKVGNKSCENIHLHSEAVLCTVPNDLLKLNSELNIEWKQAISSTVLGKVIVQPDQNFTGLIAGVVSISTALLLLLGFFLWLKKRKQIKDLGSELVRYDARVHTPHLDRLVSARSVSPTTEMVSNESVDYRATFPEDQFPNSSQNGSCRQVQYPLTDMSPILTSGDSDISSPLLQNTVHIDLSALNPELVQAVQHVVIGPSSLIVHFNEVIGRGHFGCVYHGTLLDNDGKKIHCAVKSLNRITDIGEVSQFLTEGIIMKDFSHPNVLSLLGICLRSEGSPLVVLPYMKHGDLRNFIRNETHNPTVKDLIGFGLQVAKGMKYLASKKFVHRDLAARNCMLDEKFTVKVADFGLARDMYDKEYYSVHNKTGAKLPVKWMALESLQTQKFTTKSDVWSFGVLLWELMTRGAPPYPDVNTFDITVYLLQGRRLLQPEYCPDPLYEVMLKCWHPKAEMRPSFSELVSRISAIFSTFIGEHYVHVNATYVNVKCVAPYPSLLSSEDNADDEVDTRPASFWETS

Take “AETCRQFNRRTHEVWNLDCGAAPAAPAPAAPAAPAPAAPAAPGCRQFNRRTHEVWNLDC (disulfide 4-19, 44-59; also: PEG11) [AET-PAS-aMD4dY-PEG11]”: the “RTK phosphorylation (specificity)” value in experiment [1] is listed as “Met was specifically phosphorylated”. Besides, the “maximum activity compared with HGF” value with Met (Example 6, AET form 0 to 800 ng/mL, PAS form culture supernatant diluted 10-fold) is given as “comparable to 100 ng/mL HGF”. The “signal activation ability, dimer versus monomer” value in the experiment with Met is on record as “showed signal activation ability”. Moreover, in the experiment with HuCCT1 cells, the cell migration entry is “promoted cell migration”.

In the case of “HGF: recombinant human HGF (rhHGF, R&D Systems)”, in experiment [1], the “RTK phosphorylation (specificity)” value is “Met was specifically phosphorylated”. Besides, the “signal activation ability, dimer versus monomer” value with Met was “showed signal activation ability”. Besides, in the experiment with HuCCT1 cells, the cell migration entry is reported as “proportion of the cells migrating to the lower part of the Transwell inserts increased”.
